From patent publication US5625044A, “Methods for the preparation of pure homologous series of mono to tetra fatty acyl esters of sugars and pharmaceutical formulations useful in the treatment of cancer” (Goudreau Gage Dubec & Martineau, priority 1994, dated 1997)
“Also recorded” adds a separate entry of the source.

How the values were obtained:
[1] = Tolerance and immunosuppression of angiostatic steroids
Procedure: The doses were: 150 mg/kg of body weight/day for the first two days, 125 mg/kg of body weight/day for the next two days, 100 mg/kg of body weight/day for the next two days, and then a maintenance dose of 75 mg/kg of body weight/day was used for the remaining duration of the treatment, for a total of 20-25 days. […] Therefore, the dosage rate of steroids might also be adjusted, according to the patients' response, which is left to the clinician;

[2] = in vivo; cited from earlier work
[3] = test system: C3HBA; assay: Antitumor activity of maltose palmitates against C3HBA fragment implanted s.c. in C3H/HeN females; format: in vivo, C3H/HeN mice; settings: ip. 3 times weekly, 10 μg (individual palmitates)
Description: The scientific and patent literature on tri-fatty acyl disaccharides is non existent. This compound has not been obtained as a single entity. The compound forms complexes and rarely appeared as a pure band in our investigations. However, when the mixture is subjected to HPLC as described in I, we obtain sufficient quantities of di, tri and tetra palmitates. This allowed us to test each of these components individually and in combinations. Briefly, the following results were obtained using C3HBA fragment implanted s.c. in C3H/HeN females.

[4] = test system: Naik As cells; assay: In vitro growth inhibition of angiosarcoma cell line Naik-AS; format: cell-based
Description: The in vitro growth of an angiosarcoma cell line (Naik-AS) developed by us was studied in the presence and absence of maltose tri- and tetrapalmitates.

[5] = Degradation of labelled maltose palmitates in tissues (14C/3H ratio of ethanolic extract); parameters: species or system mice; settings: mouse, in vivo
Procedure: The ^3 H-palmitoyl chloride and the ^14 C-maltose (as prepared earlier) were mixed in a total volume of 500 μl of dimethyl formamide (DMF). To the mixture was added 100 μl pyridine and the contents were heated for 14 h at 60° C. in a nitrogen atmosphere. The product was then evaporated under reduced pressure at 60° C. to remove the solvents. It was dissolved in 400 μl of absolute ethanol. Pyridine hydrochloride was removed by adding the dissolved crude reaction product to 1 ml ice cold water in an Eppendorf tube. The resulting suspension was centrifuged at 4° C. for 10 min and the supernatant was discarded. The product was dried for 48 hours in a vacuum desiccator and then was extracted with three 10 μl portions of methanol at room temperature. The methanol extract was subjected to reverse phase HPLC using a methanol eluent and detection at 214 nm at a flow rate of 0.5 ml/min and a 3.9 mn×15 cm Waters Resolve C18 5μ column. Two components eluting at 19.1 and 24.1 min which corresponded to the two isomers of maltose tetrapalmitate were collected. […] The tissue extracts were analyzed for ^3 H and ^14 C for non metabolized MTP and its degradation products by scintillation counting. […]
The ratio of degradation calculated on the basis of slope of ^14 C/^3 H ratio between 24 h and 48 h, in ethanolic extract indicated the following order of degradation, with liver taken as 100: […]

[6] = test system: cultured endothelial cells; format: in vitro ADME
[7] = test system: tumor cells; assay: Antitumor activity of individual maltose palmitates (summary statements); format: in vivo; settings: comparison of maltose palmitates
[8] = rodents, 150 down to 75 mg/kg of body weight/day, 20-25 days

For CC(=O)[C@@]1(O)CC[C@H]2[C@@H]3CCC4=CC(=O)CC[C@]4(C)[C@H]3CC[C@@]21C [17-β-OH progesterone], the “tolerance at high doses” value [1, 8] was “rodents tolerate them”.

In the case of C[C@]12CCC(=O)C=C1CC[C@@H]1[C@@H]2CC[C@@]2(C)[C@H]1CC[C@]2(O)C(=O)CO [cortexolone], the “tolerance at high doses” value ([1]; in vivo) is reported as “rodents tolerate them”.

In the case of C[C@]12CCC(=O)C=C1CC[C@@H]1[C@@H]2[C@@H](O)C[C@@]2(C)[C@H]1CC[C@]2(O)C(=O)CO [hydrocortisone], the “tolerance at high doses” value [1, 8] is listed as “rodents tolerate them” and the immunosuppression [2] is listed as “at high doses, it is immunosuppressive; also recorded: highly immunosuppressive”.

With CCCCCCCCCCCCCCCC(=O)OC[C@H]1O[C@H](O[C@H]2[C@H](O)[C@@H](O)C(OC(=O)CCCCCCCCCCCCCCC)O[C@@H]2COC(=O)CCCCCCCCCCCCCCC)[C@H](O)[C@@H](O)[C@@H]1O (stereo partly shown) [maltose tripalmitate, maltose 1, 6, 6' tri palmitate] the “Day of tumor appearance after implantation” value [3] was 14 to 16 days, the “% Inhibition of growth of Naik As cells in culture” value (“% Inhibition” for short) ([4]; 5 μg/ml, 30 hours) was 30% and the “% Inhibition” value ([4]; 5 μg/ml, 60 hours) was 17%. For the same molecule, the “% Inhibition” value ([4]; 5 μg/ml, 105 hours) was 10%, the “% Inhibition” value ([4]; .625 μg/ml, 30 hours) was 25% and the “% Inhibition” value ([4]; .625 μg/ml, 60 hours) was 11%. For the same molecule, the “% Inhibition” value ([4]; .625 μg/ml, 105 hours) was 4%, the “in vitro growth of angiosarcoma cell line (Naik-AS), in words” value ([4]; time course in words) was “inhibited growth on the first 30 hours which response declined as it got degraded” and the “retention time in tissues / degradation, in words” value [5] was “followed by maltose tripalmitate”. The “degradation by cultured endothelial cells” value [6] was “Degradation also occurred” and the “antitumor activity, in words” value [7] was “most active component”.

With C[C@]12CC[C@@H](O)C[C@H]1CC[C@@H]1[C@@H]2CC[C@@]2(C)[C@H]1CC[C@]2(O)C(=O)CO [tetra hydro S] the “tolerance at high doses” value [1, 8] was “rodents tolerate them”.
